Assay results taken from patent US10023602B2, “Hamamelitannin analogues and uses thereof” (Universiteit Gent, priority 2014, dated 2018).

Columns and labels:
[1] = tested on: methicillin resistant S. aureus Mu50 strain (S. aureus ATCC700699) biofilm; assay: Biofilm susceptibility to vancomycin, pre-treatment regimen (biofilm formed in presence of compound, then vancomycin); type: cell-based; conditions: for Pretreat (100 μM): percentage Colony Forming Units (CFU's) per biofilm: compound 100 μM during biofilm formation; for Pretreat (100 μM): percentage Colony Forming Units (CFU's) per biofilm / Pretreat. (25 μM): percentage Colony Forming Units (CFU's) per biofilm: then VAN 20 μg/ml, compared to the untreated (negative) control; for Pretreat. (25 μM): percentage Colony Forming Units (CFU's) per biofilm: compound 25 μM during biofilm formation; for EC50: concentration needed to get 50% killing compared to antibiotic alone (VAN 20 μg/ml) and complete killing, read-out: Pretreat. (EC50)
Procedure, shortened: (§1)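 Mu50 biofilms from 10^8 CFU/ml inoculum (4 h adhesion, then 20 h, 37 °C). Pre-treatment: compound (0.1-250 μM) present during biofilm formation, then vancomycin 20 μg/ml alone 24 h; combination: mature biofilm given vancomycin 20 μg/ml plus compound 24 h. Survivors counted by plating versus vancomycin alone.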

[2] = tested on: methicillin resistant S. aureus Mu50 strain (S. aureus ATCC700699) biofilm; assay: Biofilm susceptibility to vancomycin, combination treatment regimen (mature biofilm treated with compound plus vancomycin); type: cell-based; conditions: for Combin. (100 μM): percentage Colony Forming Units (CFU's) per biofilm: compound 100 μM together with VAN 20 μg/ml on mature biofilm; for Combin. (100 μM): percentage Colony Forming Units (CFU's) per biofilm / Combin. (25 μM): percentage Colony Forming Units (CFU's) per biofilm: compared to the untreated (negative) control; for Combin. (25 μM): percentage Colony Forming Units (CFU's) per biofilm: compound 25 μM together with VAN 20 μg/ml on mature biofilm; for EC50: concentration needed to get 50% killing compared to antibiotic alone (VAN 20 μg/ml) and complete killing, read-out: Combin. (EC50)
Procedure, shortened: as §1

Row | SMILES | Pretreat (100 μM): percentage Colony Forming Units (CFU's) per biofilm [1] [percentage] | Combin. (100 μM): percentage Colony Forming Units (CFU's) per biofilm [2] [percentage] | Pretreat. (25 μM): percentage Colony Forming Units (CFU's) per biofilm [1] [percentage] | EC50 [1] [µM] | Combin. (25 μM): percentage Colony Forming Units (CFU's) per biofilm [2] [percentage] | EC50 [2] [µM]
1 | COc1ccccc1C(=O)NC[C@H]1OC[C@@](O)(CNC(=O)c2ccccc2)[C@@H]1O [compound 172, N-(((2R,3R,4S)-4-(benzamidomethyl)-3,4-dihydroxytetrahydrofuran-2-yl)methyl)-2-methoxybenzamide] | 15.37 | 31.40 |  |  |  | 
2 | Cc1ccc(C(=O)NC[C@]2(O)CO[C@H](CNC(=O)c3ccccc3Cl)[C@H]2O)cc1 [compound 232, 2-chloro-N-(((2R,3R,4S)-3,4-dihydroxy-4-((4-methylbenzamido)methyl)tetrahydrofuran-2-yl)methyl)benzamide] |  |  | 52.41 | 79.7 | 42.16 | 41.9
3 | O=C(NC[C@H]1OC[C@@](O)(CNC(=O)c2ccccc2)[C@@H]1O)c1cncnc1 [compound 205, N-(((2R,3R,4S)-4-(benzamidomethyl)-3,4-dihydroxytetrahydrofuran-2-yl)methyl)pyrimidine-5-carboxamide] | 6.699 | 16.51 |  |  |  | 
4 | O=C(NC[C@H]1OC[C@@](O)(CNC(=O)c2ccccc2)[C@@H]1O)c1ccc2ccccc2c1 [compound 185, N-(((2R,3R,4S)-4-(benzamidomethyl)-3,4-dihydroxytetrahydrofuran-2-yl)methyl)-2-naphthamide] | 22.11 | 36.32 |  |  |  | 
5 | N#Cc1cccc(C(=O)NC[C@H]2OC[C@@](O)(CNC(=O)c3ccccc3)[C@@H]2O)c1 [compound 164, N-(((2R,3R,4S)-4-(benzamidomethyl)-3,4-dihydroxytetrahydrofuran-2-yl)methyl)-3-cyanobenzamide] | 22.11 | 14.49 |  |  |  | 
6 | O=C(NC[C@]1(O)CO[C@H](CNS(=O)(=O)c2ccccc2Cl)[C@H]1O)c1ccccc1 [compound 218, N-(((3S,4R,5R)-5-(((2-chlorophenyl)sulfonamido)methyl)-3,4-dihydroxytetrahydrofuran-3-yl)methyl)benzamide] | 35.03 | 26.88 |  |  |  | 
7 | O=C(NC[C@]1(O)CO[C@H](CNC(=O)c2ccccc2I)[C@H]1O)c1ccccc1 [compound 179, N-(((2R,3R,4S)-4-(benzamidomethyl)-3,4-dihydroxytetrahydrofuran-2-yl)methyl)-2-iodobenzamide] | 3.84 | 16.46 |  | 1.85 |  | 20.4
8 | O=C(NC[C@]1(O)CO[C@H](CNS(=O)(=O)c2ccc(-c3ccccc3)cc2)[C@H]1O)c1ccccc1 [compound 219, N-(((3S,4R,5R)-5-(([1,1′-biphenyl]-4-sulfonamido)methyl)-3,4-dihydroxytetrahydrofuran-3-yl)methyl)benzamide] | 16.13 | 17.02 |  |  |  | 
9 | O=C(NC[C@]1(O)CO[C@H](CNC(=O)c2ccccc2Cl)[C@H]1O)c1ccc(-c2ccccc2)cc1 [compound 252, N-(((3S,4R,5R)-5-((2-chlorobenzamido)methyl)-3,4-dihydroxytetrahydrofuran-3-yl)methyl)-[1,1′-biphenyl]-4-carboxamide] | 2.25 | 29.40 |  | 11.8 |  | 69.2
10 | O=C(NC[C@]1(O)CO[C@H](CNS(=O)(=O)c2ccccc2-c2ccccc2)[C@H]1O)c1ccccc1 [compound 220, N-(((3S,4R,5R)-5-(([1,1′-biphenyl]-2-sulfonamido)methyl)-3,4-dihydroxytetrahydrofuran-3-yl)methyl)benzamide] | 25.63 | 29.85 |  |  |  | 
11 | CCS(=O)(=O)NC[C@H]1OC[C@@](O)(CNC(=O)c2ccccc2)[C@@H]1O [compound 212, N-(((3S,4R,5R)-5-(ethylsulfonamidomethyl)-3,4-dihydroxytetrahydrofuran-3-yl)methyl)benzamide] | 50.68 | 52.64 |  |  |  | 
12 | COc1ccc(C(=O)NC[C@]2(O)CO[C@H](CNC(=O)c3ccccc3Cl)[C@H]2O)cc1 [compound 235, 2-chloro-N-(((2R,3R,4S)-3,4-dihydroxy-4-((4-methoxybenzamido)methyl)tetrahydrofuran-2-yl)methyl)benzamide] |  |  | 66.10 |  | 57.35 | 
13 | O=C(NC[C@]1(O)CO[C@H](CNS(=O)(=O)c2ccc(Cl)cc2)[C@H]1O)c1ccccc1 [compound 217, N-(((3S,4R,5R)-5-(((4-chlorophenyl)sulfonamido)methyl)-3,4-dihydroxytetrahydrofuran-3-yl)methyl)benzamide] | 14.04 | 14.85 |  | 23.5 |  | 27.8
14 | CN(C)c1ccc(C(=O)NC[C@]2(O)CO[C@H](CNC(=O)c3ccccc3Cl)[C@H]2O)cc1 [compound 237, 2-chloro-N-(((2R,3R,4S)-4-((4-(dimethylamino)benzamido)methyl)-3,4-dihydroxytetrahydrofuran-2-yl)methyl)benzamide] |  |  | 58.79 | 47.6 | 47.56 | 69.7
15 | Cn1cc(C(=O)NC[C@H]2OC[C@@](O)(CNC(=O)c3ccccc3)[C@@H]2O)c2ccccc21 [compound 187, N-(((2R,3R,4S)-4-(benzamidomethyl)-3,4-dihydroxytetrahydrofuran-2-yl)methyl)-1-methyl-1H-indole-3-carboxamide] | 32.91 | 29.24 |  |  |  | 
16 | O=C(NC[C@H]1OC[C@@](O)(CNC(=O)c2ccccc2)[C@@H]1O)c1cccc(Cl)c1 [compound 162, N-(((2R,3R,4S)-4-(benzamidomethyl)-3,4-dihydroxytetrahydrofuran-2-yl)methyl)-3-chlorobenzamide] | 24.07 | 29.06 |  |  |  | 
17 | O=C(NC[C@]1(O)CO[C@H](CNC(=O)c2ccccc2Cl)[C@H]1O)c1ccnnc1 [compound 255, N-(((3S,4R,5R)-5-((2-chlorobenzamido)methyl)-3,4-dihydroxytetrahydrofuran-3-yl)methyl)pyridazine-4-carboxamide] | 8.03 | 25.78 |  | 15 |  | 55.7
18 | O=C(NC[C@]1(O)CO[C@H](CNC(=O)c2cccnn2)[C@H]1O)c1ccccc1 [compound 206, N-(((2R,3R,4S)-4-(benzamidomethyl)-3,4-dihydroxytetrahydrofuran-2-yl)methyl)pyridazine-3-carboxamide] | 6.460 | 15.17 |  |  |  | 
19 | CC(=O)NC[C@H]1OC[C@@](O)(CNC(=O)c2ccccc2)[C@@H]1O [compound 225, N-(((3S,4R,5R)-5-(acetamidomethyl)-3,4-dihydroxytetrahydrofuran-3-yl)methyl)benzamide] | 23.96 | 27.38 |  |  |  | 
20 | COc1cccc(C(=O)NC[C@H]2OC[C@@](O)(CNC(=O)c3ccccc3)[C@@H]2O)c1 [compound 163, N-(((2R,3R,4S)-4-(benzamidomethyl)-3,4-dihydroxytetrahydrofuran-2-yl)methyl)-3-methoxybenzamide] | 28.44 | 27.21 |  |  |  | 
21 | O=C(NC[C@]1(O)CO[C@H](CNC(=O)c2ccc(Cl)cc2Cl)[C@H]1O)c1ccccc1 [compound 193, N-(((2R,3R,4S)-4-(benzamidomethyl)-3,4-dihydroxytetrahydrofuran-2-yl)methyl)-2,4-dichlorobenzamide] | 10.80 | 11.25 |  | 11.4 |  | 11.7
